# Earlier results in patent publication US20190015445A1, “INJECTION […] DIOXIDE AND METHOD FOR MAKING SAME” (priority 2016, published 2019).
# Like-named read-outs stand apart in the source and are kept apart here.
smiles,measurement,setting,value
[O][Cl+][O-] [chlorine dioxide],solubility of chlorine dioxide,"at 20° C., aqueous solution",about 2.9 g/L
same,solubility of chlorine dioxide,at room temperature,2900 µg/mL
